Experimental data reported in US7807703B2, “Substituted aryl ketones” (Bayer CropScience AG, priority 2002, dated 2010).

How the values were obtained:
[1] = log P determination by reversed-phase HPLC (EEC Directive 79/831 Annex V.A8; acidic or neutral mobile phase); format: physicochemical; conditions: for log P (acidic): acetonitrile (marked a) or acidic)
Outline: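 Reversed-phase C18 HPLC per EEC Directive 79/831 Annex V.A8 at 43° C. Linear gradient of 10% to 90% acetonitrile, run against 0.1% aqueous phosphoric acid for the acidic range (a) or 0.01 molar aqueous phosphate buffer for the neutral range (b).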

[2] = tested on: weeds; assay: Post-emergence test (Example B), herbicidal activity; format: in vivo; conditions: test plants of 5-15 cm sprayed, rated after three weeks
Experimental: (§1) • Solvent: 5 parts by weight of acetone • Emulsifier: 1 part by weight of alkylaryl polyglycol ether
(§2) To produce a suitable preparation of active compound, 1 part by weight of active compound is mixed with the stated amount of solvent, the stated amount of emulsifier is added and the concentrate is diluted with water to the desired concentration.
Test plants of a height of 5-15 cm are sprayed with the preparation of active compound such that the particular amounts of active compound desired are applied per unit area. The concentration of the spray liquor is chosen such that the particular amounts of active compound desired are applied in 1000 l of water/ha.
After three weeks, the degree of damage to the plants is rated in % damage in comparison to the development of the untreated control.
The figures denote: • 0%=no effect (like untreated control) • 100%=total destruction

[3] = tested on: weeds; assay: Pre-emergence test (Example A), herbicidal activity; format: in vivo; conditions: soil sprayed 24 hours after sowing, rated after three weeks
Experimental: as §1, §2
Seeds of the test plants are sown in normal soil. After 24 hours, the soil is sprayed with the preparation of active compound such that the particular amount of active compound desired is applied per unit area. The concentration of active compound in the spray liquor is chosen such that the particular amount of active compound desired is applied in 1000 liters of water per hectare.
After three weeks, the degree of damage to the plants is rated in % damage in comparison to the development of the untreated control. The figures denote: • 0%=no effect (like untreated control) • 100%=total destruction

[4] = HPLC reversed-phase C18, 43° C., acidic range: 0.1% aqueous phosphoric acid, acetonitrile gradient (marked a))
[5] = HPLC, reversed-phase C18, 43° C.; acidic range a): 0.1% aqueous phosphoric acid, acetonitrile, linear gradient 10% to 90% acetonitrile
[6] = HPLC, reversed-phase C 18, 43° C., acidic range: 0.1% aqueous phosphoric acid
[7] = HPLC, reversed-phase C 18, 43° C., mobile phase range not marked

SMILES	logP [1, 4]	activity against weeds (degree of damage) [2]	activity against weeds (degree of damage) [3]	further results
CCn1ncc(C(=O)c2ccc(Cl)c(OCCNS(=O)(=O)c3ccc(C)cc3)c2Cl)c1O [Example 3]	(I-2) logP = 2.74^a)	strong activity	–	–
CS(=O)(=O)NCCOc1c(Cl)ccc(C(=O)C2C(=O)CCCC2=O)c1Cl [Example 5]	logP = 2.16^a)	strong activity	strong activity	–
CCn1ncc(C(=O)c2ccc(Cl)c(OCCNS(C)(=O)=O)c2Cl)c1O [Example 6]	logP = 1.65^a)	–	strong activity	–
CCS(=O)(=O)NCCOc1c(Cl)ccc(C(=O)C2C(=O)CCCC2=O)c1Cl [Example 4]	logP = 2.36^a)	strong activity	strong activity	–
CCn1ncc(C(=O)c2ccc(Cl)c(OCCNS(=O)(=O)CC)c2Cl)c1O [Example 2, 4-[2,4-dichloro-3-(N-ethylsulphonylaminoethoxy)benzoyl]-1-ethyl-5-hydroxypyrazole]	–	strong activity	strong activity	chromatographic logP ([1]; reversed-phase C18 HPLC column, HPLC reversed-phase C18, 43° C., acidic range: 0.1% aqueous phosphoric acid, acetonitrile gradient (marked a)), read-out: logP): 1.86
CCn1ncc(C(=O)c2ccc(Cl)c(OCCNS(=O)(=O)CC)c2C)c1O [Example 358]	–	–	–	logP [1, 5]: logP = 2.03^a)
COC(=O)c1ccc(Br)c(OCCNS(C)(=O)=O)c1Br [VIII-32]	–	–	–	log P (acidic) [1, 6]: logPacidic = 2.13
CC(C)ON(Cc1c(S(C)(=O)=O)ccc(C(=O)C2C(=O)CCC(C)(C)C2=O)c1Cl)C(C)C (stereo not shown) [Example 399]	–	–	–	logP [1, 5]: (I-2) logP = 4.80^a)
CCONCc1c(Cl)ccc(C(=O)OC)c1OC [VIII-13]	–	–	–	log P [1, 7]: logP = 2.27
COC(=O)c1ccc(S(C)(=O)=O)c(CN(C)OC(C)C)c1Cl [VIII-45]	–	–	–	log P (acidic) [1, 6]: logPacicic = 2.97
CON(C)Cc1c(S(C)(=O)=O)ccc(C(=O)C2C(=O)CCCC2=O)c1Cl [Example 303]	–	–	–	logP (HPLC, mobile phase not marked) [1, 7]: (I-2) 2.49
